According to PubChem BioAssay (NCI):
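GI50 = concentration required for 50% inhibition of growth. At the TGI there is no net growth.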

How the values were obtained:
Experiment in all cases: NCI anticancer screen, dose series, 384-well format
A498 renal = test system: A498 renal
OVCAR-3 ovarian = test system: OVCAR-3 ovarian
HCT-116 colon = test system: HCT-116 colon
SN12C renal = test system: SN12C renal
NCI-H23 lung = test system: NCI-H23 lung
BT-549 breast = test system: BT-549 breast
RPMI-8226 leukemia = test system: RPMI-8226 leukemia
HOP-62 NSCLC = test system: HOP-62 NSCLC
NCI-H460 NSCLC = test system: NCI-H460 NSCLC
TK-10 renal = test system: TK-10 renal
SW-620 colon = test system: SW-620 colon
MALME-3M melanoma = test system: MALME-3M melanoma
SNB-19 CNS = test system: SNB-19 CNS
HCT-15 colon = test system: HCT-15 colon
DU-145 prostate = test system: DU-145 prostate
NCI-H522 lung = test system: NCI-H522 lung
SF-295 CNS = test system: SF-295 CNS
PC-3 prostate = test system: PC-3 prostate
HCC-2998 colon = test system: HCC-2998 colon
CAKI-1 renal = test system: CAKI-1 renal
UACC-62 melanoma = test system: UACC-62 melanoma
OVCAR-8 ovarian = test system: OVCAR-8 ovarian
T-47D breast = test system: T-47D breast
KM12 colon = test system: KM12 colon
CCRF-CEM leukemia = test system: CCRF-CEM leukemia
NCI/ADR-RES ovarian = test system: NCI/ADR-RES ovarian
U251 glioblastoma = test system: U251 glioblastoma
UO-31 renal = test system: UO-31 renal
SK-OV-3 ovarian = test system: SK-OV-3 ovarian
MDA-MB-435 melanoma = test system: MDA-MB-435 melanoma
MOLT-4 leukemia = test system: MOLT-4 leukemia
HOP-92 NSCLC = test system: HOP-92 NSCLC
SF-268 CNS = test system: SF-268 CNS
SK-MEL-5 melanoma = test system: SK-MEL-5 melanoma
NCI-H226 lung = test system: NCI-H226 lung
IGROV1 ovarian = test system: IGROV1 ovarian
COLO 205 colon = test system: COLO 205 colon
LOX IMVI melanoma = test system: LOX IMVI melanoma
SK-MEL-2 melanoma = test system: SK-MEL-2 melanoma
UACC-257 melanoma = test system: UACC-257 melanoma
SNB-75 CNS = test system: SNB-75 CNS
MDA-MB-468 breast = test system: MDA-MB-468 breast
HL-60(TB) leukemia = test system: HL-60(TB) leukemia
M14 melanoma = test system: M14 melanoma
OVCAR-4 ovarian = test system: OVCAR-4 ovarian
K-562 leukemia = test system: K-562 leukemia
MCF7 breast = test system: MCF7 breast

Cc1cc([N+](=O)[O-])c(NS(=O)(=O)c2cccc(C(=O)O)c2)cc1-c1cccnc1
GI50 (A498 renal): > 100 µM | TGI (A498 renal): > 100 µM | GI50 (OVCAR-3 ovarian): > 100 µM | TGI (OVCAR-3 ovarian): > 100 µM | GI50 (HCT-116 colon): > 100 µM | TGI (HCT-116 colon): > 100 µM | GI50 (SN12C renal): > 100 µM | TGI (SN12C renal): > 100 µM | GI50 (NCI-H23 lung): > 100 µM | TGI (NCI-H23 lung): > 100 µM | GI50 (BT-549 breast): > 100 µM | TGI (BT-549 breast): > 100 µM | GI50 (RPMI-8226 leukemia): > 100 µM | TGI (RPMI-8226 leukemia): > 100 µM | GI50 (HOP-62 NSCLC): > 100 µM | TGI (HOP-62 NSCLC): > 100 µM | GI50 (NCI-H460 NSCLC): > 100 µM | TGI (NCI-H460 NSCLC): > 100 µM | GI50 (TK-10 renal): > 100 µM | TGI (TK-10 renal): > 100 µM | GI50 (SW-620 colon): > 100 µM | TGI (SW-620 colon): > 100 µM | GI50 (MALME-3M melanoma): > 100 µM | TGI (MALME-3M melanoma): > 100 µM | GI50 (SNB-19 CNS): > 100 µM | TGI (SNB-19 CNS): > 100 µM | GI50 (HCT-15 colon): > 100 µM | TGI (HCT-15 colon): > 100 µM | GI50 (DU-145 prostate): > 100 µM | TGI (DU-145 prostate): > 100 µM | GI50 (NCI-H522 lung): > 100 µM | TGI (NCI-H522 lung): > 100 µM | GI50 (SF-295 CNS): > 100 µM | TGI (SF-295 CNS): > 100 µM | GI50 (PC-3 prostate): > 100 µM | TGI (PC-3 prostate): > 100 µM | GI50 (HCC-2998 colon): > 100 µM | TGI (HCC-2998 colon): > 100 µM | GI50 (CAKI-1 renal): > 100 µM | TGI (CAKI-1 renal): > 100 µM | GI50 (UACC-62 melanoma): > 100 µM | TGI (UACC-62 melanoma): > 100 µM | GI50 (OVCAR-8 ovarian): > 100 µM | TGI (OVCAR-8 ovarian): > 100 µM | GI50 (T-47D breast): > 100 µM | TGI (T-47D breast): > 100 µM | GI50 (KM12 colon): 16.8 µM | TGI (KM12 colon): > 100 µM | GI50 (CCRF-CEM leukemia): > 100 µM | TGI (CCRF-CEM leukemia): > 100 µM | GI50 (NCI/ADR-RES ovarian): > 100 µM | TGI (NCI/ADR-RES ovarian): > 100 µM | GI50 (U251 glioblastoma): > 100 µM | TGI (U251 glioblastoma): > 100 µM | GI50 (UO-31 renal): > 100 µM | TGI (UO-31 renal): > 100 µM | GI50 (SK-OV-3 ovarian): > 100 µM | TGI (SK-OV-3 ovarian): > 100 µM | GI50 (MDA-MB-435 melanoma): > 100 µM | TGI (MDA-MB-435 melanoma): > 100 µM | GI50 (MOLT-4 leukemia): > 100 µM | TGI (MOLT-4 leukemia): > 100 µM | GI50 (HOP-92 NSCLC): > 100 µM | TGI (HOP-92 NSCLC): > 100 µM | GI50 (SF-268 CNS): > 100 µM | TGI (SF-268 CNS): > 100 µM | GI50 (SK-MEL-5 melanoma): > 100 µM | TGI (SK-MEL-5 melanoma): > 100 µM | GI50 (NCI-H226 lung): > 100 µM | TGI (NCI-H226 lung): > 100 µM | GI50 (IGROV1 ovarian): > 100 µM | TGI (IGROV1 ovarian): > 100 µM | GI50 (COLO 205 colon): > 100 µM | TGI (COLO 205 colon): > 100 µM | GI50 (LOX IMVI melanoma): > 100 µM | TGI (LOX IMVI melanoma): > 100 µM | GI50 (SK-MEL-2 melanoma): > 100 µM | TGI (SK-MEL-2 melanoma): > 100 µM | GI50 (UACC-257 melanoma): > 100 µM | TGI (UACC-257 melanoma): > 100 µM | GI50 (SNB-75 CNS): > 100 µM | TGI (SNB-75 CNS): > 100 µM | GI50 (MDA-MB-468 breast): > 100 µM | TGI (MDA-MB-468 breast): > 100 µM | GI50 (HL-60(TB) leukemia): > 100 µM | TGI (HL-60(TB) leukemia): > 100 µM | GI50 (M14 melanoma): > 100 µM | TGI (M14 melanoma): > 100 µM | GI50 (OVCAR-4 ovarian): > 100 µM | TGI (OVCAR-4 ovarian): > 100 µM | GI50 (K-562 leukemia): > 100 µM | TGI (K-562 leukemia): > 100 µM | GI50 (MCF7 breast): > 100 µM | TGI (MCF7 breast): > 100 µM

CC1=C(c2cccc(O)c2)[C@H](c2ccc(OCCN3CC(CF)C3)cc2)Oc2ccc(O)cc21
GI50 (A498 renal): 2.28 µM | TGI (A498 renal): 6.48 µM | GI50 (OVCAR-3 ovarian): 4.05 µM | TGI (OVCAR-3 ovarian): 15.4 µM | GI50 (HCT-116 colon): 3.62 µM | TGI (HCT-116 colon): 13.8 µM | GI50 (SN12C renal): 7.94 µM | TGI (SN12C renal): 20.6 µM | GI50 (NCI-H23 lung): 7.02 µM | TGI (NCI-H23 lung): 19.6 µM | GI50 (BT-549 breast): 3.24 µM | TGI (BT-549 breast): 12.6 µM | GI50 (RPMI-8226 leukemia): 1.82 µM | TGI (RPMI-8226 leukemia): 4.02 µM | GI50 (HOP-62 NSCLC): 4.55 µM | TGI (HOP-62 NSCLC): 15 µM | GI50 (NCI-H460 NSCLC): 2.18 µM | TGI (NCI-H460 NSCLC): 4.88 µM | GI50 (TK-10 renal): 5.15 µM | TGI (TK-10 renal): 17.6 µM | GI50 (SW-620 colon): 4.9 µM | TGI (SW-620 colon): 16.6 µM | GI50 (MALME-3M melanoma): 1.64 µM | TGI (MALME-3M melanoma): 3.05 µM | GI50 (SNB-19 CNS): 10.5 µM | TGI (SNB-19 CNS): 22.3 µM | GI50 (HCT-15 colon): 3.57 µM | TGI (HCT-15 colon): 13.2 µM | GI50 (DU-145 prostate): 10.8 µM | TGI (DU-145 prostate): 22.7 µM | GI50 (NCI-H522 lung): 11.1 µM | TGI (NCI-H522 lung): 23.1 µM | GI50 (SF-295 CNS): 11.6 µM | TGI (SF-295 CNS): 23.9 µM | GI50 (PC-3 prostate): 4.5 µM | TGI (PC-3 prostate): 16.9 µM | GI50 (HCC-2998 colon): 1.54 µM | TGI (HCC-2998 colon): 3.23 µM | GI50 (CAKI-1 renal): 3.42 µM | TGI (CAKI-1 renal): 13.5 µM | GI50 (UACC-62 melanoma): 4.7 µM | TGI (UACC-62 melanoma): 16.4 µM | GI50 (OVCAR-8 ovarian): 10.1 µM | TGI (OVCAR-8 ovarian): 21.8 µM | GI50 (T-47D breast): 1.11 µM | TGI (T-47D breast): 12.4 µM | GI50 (KM12 colon): 3.21 µM | TGI (KM12 colon): 10.2 µM | GI50 (CCRF-CEM leukemia): 2.11 µM | TGI (CCRF-CEM leukemia): 4.88 µM | GI50 (NCI/ADR-RES ovarian): 16.2 µM | TGI (NCI/ADR-RES ovarian): 29.8 µM | GI50 (U251 glioblastoma): 5.35 µM | TGI (U251 glioblastoma): 17.1 µM | GI50 (UO-31 renal): 9.8 µM | TGI (UO-31 renal): 21.5 µM | GI50 (SK-OV-3 ovarian): 5.77 µM | TGI (SK-OV-3 ovarian): 18.3 µM | GI50 (MDA-MB-435 melanoma): 10.7 µM | TGI (MDA-MB-435 melanoma): 22.6 µM | GI50 (MOLT-4 leukemia): 1.58 µM | TGI (MOLT-4 leukemia): 2.97 µM | GI50 (HOP-92 NSCLC): 3.83 µM | TGI (HOP-92 NSCLC): 13.1 µM | GI50 (SF-268 CNS): 4.24 µM | TGI (SF-268 CNS): 15.6 µM | GI50 (SK-MEL-5 melanoma): 1.68 µM | TGI (SK-MEL-5 melanoma): 3.07 µM | GI50 (NCI-H226 lung): 6.19 µM | TGI (NCI-H226 lung): 19.4 µM | GI50 (IGROV1 ovarian): 4.88 µM | TGI (IGROV1 ovarian): 16.9 µM | GI50 (COLO 205 colon): 3.09 µM | TGI (COLO 205 colon): 8.69 µM | GI50 (LOX IMVI melanoma): 1.77 µM | TGI (LOX IMVI melanoma): 3.34 µM | GI50 (SK-MEL-2 melanoma): 1.96 µM | TGI (SK-MEL-2 melanoma): 3.78 µM | GI50 (UACC-257 melanoma): 1.64 µM | TGI (UACC-257 melanoma): 3.01 µM | GI50 (SNB-75 CNS): 2.36 µM | TGI (SNB-75 CNS): 7.79 µM | GI50 (MDA-MB-468 breast): 1.94 µM | TGI (MDA-MB-468 breast): 4.35 µM | GI50 (HL-60(TB) leukemia): 1.86 µM | TGI (HL-60(TB) leukemia): 3.29 µM | GI50 (M14 melanoma): 1.89 µM | TGI (M14 melanoma): 3.88 µM | GI50 (OVCAR-4 ovarian): 5.79 µM | TGI (OVCAR-4 ovarian): 17.8 µM | GI50 (K-562 leukemia): 1.73 µM | TGI (K-562 leukemia): 3.29 µM | TGI (MCF7 breast): 1.97 µM
